pIC50: −log10 of the molar value. Where a name gives a salt, the structure may show the parent alone.
Assays:
[1] = Rat liver microsomal stability assay; type: in vitro ADME; details: rat liver microsomes, 37° C., NADPH; for half-life at 1 µM: pH 7.4, read-out: RLM stability t1/2
[2] = molecular target: Dopamine Transporter (hDAT) (Homo sapiens, UniProt Q01959); assay: Dopamine transporter (hDAT) membrane binding assay, [3H]-WIN 35,428
[3] = molecular target: T1, human norepinephrine transporter (hNET) (Homo sapiens, UniProt P23975); assay: hNET uptake, Protocol B: cell based norepinephrine reuptake assay using recombinant hNET (MDCK-Net6 cells); details: hNET Function IC50 (nM), protocol not stated
T1 sequence (P23975 whole entry): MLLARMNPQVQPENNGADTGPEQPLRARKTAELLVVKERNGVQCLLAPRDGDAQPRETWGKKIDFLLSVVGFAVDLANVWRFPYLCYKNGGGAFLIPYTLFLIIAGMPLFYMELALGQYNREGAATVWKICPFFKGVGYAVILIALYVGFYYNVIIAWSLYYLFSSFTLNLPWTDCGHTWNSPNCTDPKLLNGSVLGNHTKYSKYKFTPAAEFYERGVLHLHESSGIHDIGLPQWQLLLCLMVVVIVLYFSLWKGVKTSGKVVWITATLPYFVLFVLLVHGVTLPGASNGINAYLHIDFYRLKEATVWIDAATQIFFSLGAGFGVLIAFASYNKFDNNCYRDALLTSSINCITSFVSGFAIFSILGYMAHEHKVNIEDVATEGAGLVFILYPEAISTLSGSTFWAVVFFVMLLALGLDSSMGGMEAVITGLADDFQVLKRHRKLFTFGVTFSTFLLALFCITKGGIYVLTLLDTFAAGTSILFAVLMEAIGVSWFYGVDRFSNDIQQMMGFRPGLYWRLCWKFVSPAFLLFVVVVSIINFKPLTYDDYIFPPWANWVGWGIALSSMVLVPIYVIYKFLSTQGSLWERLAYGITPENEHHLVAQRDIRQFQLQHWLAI

[4] = molecular target: T1, human norepinephrine transporter (hNET); assay: hNET uptake, Protocol A: inhibition of [3H] NE uptake into cloned human NE transporters (MDCK cells); type: cell-based; set-up: expressed in transfected cells; host or cells: MDCK-Net6 cells; details: for inhibition at 2 µM: MDCK, read-out: NE uptake (Protocol A) % inh. @ 2 uM; for pIC50: MDCK cells expressing hNET, [3H] NE 16 nM
Experimental: hNET Assay Procedure Protocol A: Inhibition of [^3H] NE Uptake into Cloned Human NE Transporters (MDCK Cells) (“hNET uptake”)
[^3H] […] Cells were seeded at 300,000/T75 flask, and split twice weekly.
All uptake experiments were performed in 96-well plates (Falcon Optilux, cat #353947) in a total volume of 250 μl/well. MDCK cells were plated at 50,000 cells/well. […] 25 μl of each test compound was subsequently added to plates in triplicate and incubated at 37° C. for 5 minutes. All test compounds were dissolved in 100% DMSO and diluted in 4% DMSO/H2O, and assayed using a 7-point dose response curve (1 nM-10 μM). Next, 25 μl of [^3H] NE (74.9 Ci/mmol, Perkin Elmer, Boston, Mass.) was added to all wells and incubated at 37° C. for an additional 5 minutes. Non-specific uptake was defined by 20 μM desipramine. The final concentrations of [^3H] NE was 16 nM, respectively. The reaction was terminated by aspiration and washed with ice cold 50 mM Tris (pH 7.4). The plates were left to air dry for roughly 30 min, and MDCK cells were lysed by the addition of 25 μl of 0.25 M NaOH. 100 μl of Microscint-20 were added to each well (Packard, Perkin Elmer, Boston, Mass.), and the plates were counted using a TopCount (Perkin Elmer, Downer's Grove, Ill.) liquid scintillation counter.
% Inhibition of uptake=((mean cpm control wells−each cpm drug well)/(mean cpm control wells−non-specific wells)×100.
IC50 values were calculated using a Prism® nonlinear regression program where % inhibition is plotted versus concentration of inhibitor.

[5] = molecular target: hNET (Homo sapiens, UniProt P23975); assay: hNET binding according to Mahaney et al.; details: printed in the Protocol B column with footnote
Chain of hNET (P23975 whole entry): as above

Chain of Dopamine Transporter (hDAT) (Q01959 whole entry): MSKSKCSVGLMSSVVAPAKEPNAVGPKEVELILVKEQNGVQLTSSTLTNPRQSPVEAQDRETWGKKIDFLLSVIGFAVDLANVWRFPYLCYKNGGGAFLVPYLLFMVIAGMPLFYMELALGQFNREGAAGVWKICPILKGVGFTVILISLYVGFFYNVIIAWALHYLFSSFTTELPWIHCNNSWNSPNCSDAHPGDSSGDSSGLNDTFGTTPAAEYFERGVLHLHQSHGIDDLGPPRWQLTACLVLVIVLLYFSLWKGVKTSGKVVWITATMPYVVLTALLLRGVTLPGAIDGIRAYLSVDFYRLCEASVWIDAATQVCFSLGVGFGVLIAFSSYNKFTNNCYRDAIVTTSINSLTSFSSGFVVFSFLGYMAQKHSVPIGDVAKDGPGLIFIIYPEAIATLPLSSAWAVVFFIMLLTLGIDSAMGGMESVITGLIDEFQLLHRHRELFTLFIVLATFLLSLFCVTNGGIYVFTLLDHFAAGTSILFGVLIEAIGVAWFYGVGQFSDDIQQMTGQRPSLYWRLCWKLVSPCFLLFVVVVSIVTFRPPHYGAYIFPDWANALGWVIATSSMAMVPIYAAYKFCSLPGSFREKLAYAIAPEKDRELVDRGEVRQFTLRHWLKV

SMILES	half-life at 1 µM [1] [min]	pIC50 [2]	IC50 [3] [nM]	also measured
CNCCCN1c2ccccc2N(c2c(F)cccc2F)S1(=O)=O				RLM stability t1/2 [1]: 2.0 min
CCNCCCN1c2ccccc2N(c2ccc(Cl)cc2)S1(=O)=O [Example 4, 3-[3-(4-chlorophenyl)-2,2-dioxido-2,1,3-benzothiadiazol-1(3H)-yl]-N-ethylpropan-1-amine]				inhibition at 2 µM [4]: 37%
NCCCN1c2ccccc2N(c2ccc(Cl)cc2)S1(=O)=O [Example 2, 3-[3-(4-chlorophenyl)-2,2-dioxido-2,1,3-benzothiadiazol-1(3H)-yl]propan-1-amine]				pIC50 [4]: 5.60
CNCCCCN1c2ccccc2N(c2ccc(Cl)cc2)S1(=O)=O [Example 20, 4-[3-(4-chlorophenyl)-2,2-dioxido-2,1,3-benzothiadiazol-1(3H)-yl]-N-methylbutan-1-amine]				pIC50 [4]: 6.32
CNCCN1c2ccccc2N(c2ccc(Cl)cc2)S1(=O)=O [Example 55, 2-[3-(4-chlorophenyl)-2,2-dioxido-2,1,3-benzothiadiazol-1(3H)-yl]-N-methylethanamine]				inhibition at 2 µM [4]: 15%
CNCCCCN1c2ccccc2N(c2ccc(F)cc2F)S1(=O)=O	11	6.35	8.4	
CCCCNCCCCN1c2ccccc2N(c2ccc(Cl)cc2)S1(=O)=O [Example 22, n-butyl-4-[3-(4-chlorophenyl)-2,2-dioxido-2,1,3-benzothiadiazol-1(3H)-yl]butan-1-amine]				inhibition at 2 µM [4]: 27%
CN(C)CCCCN1c2ccccc2N(c2ccc(Cl)cc2)S1(=O)=O [Example 21, 4-[3-(4-chlorophenyl)-2,2-dioxido-2,1,3-benzothiadiazol-1(3H)-yl]-N,N-dimethylbutan-1-amine]				pIC50 [4]: 5.23
NCCN1c2ccccc2N(c2ccc(Cl)cc2)S1(=O)=O [Example 54, 2-[3-(4-chlorophenyl)-2,2-dioxido-2,1,3-benzothiadiazol-1(3H)-yl]ethanamine]				inhibition at 2 µM [4]: 3%
NCCCCN1c2ccccc2N(c2ccc(Cl)cc2)S1(=O)=O [Example 19, 4-[3-(4-chlorophenyl)-2,2-dioxido-2,1,3-benzothiadiazol-1(3H)-yl]butan-1-amine]				pIC50 [4]: 5.95
O=S1(=O)N(CCCNC2CC2)c2ccccc2N1c1ccc(Cl)cc1 [Example 3, N-{3-[3-(4-chlorophenyl)-2,2-dioxido-2,1,3-benzothiadiazol-1(3H)-yl]propyl}cyclopropanamine]				pIC50 [4]: 5.37
CNCCCN1c2ccccc2N(c2cccc(F)c2C)S1(=O)=O [Example 10, 3-[3-(3-fluoro-2-methylphenyl)-2,2-dioxido-2,1,3-benzothiadiazol-1(3H)-yl]-N-methylpropan-1-amine]				pIC50 [4]: 7.40
NCCCCCN1c2ccccc2N(c2ccc(F)cc2F)S1(=O)=O [Example 116, 5-[3-(2,4-difluorophenyl)-2,2-dioxido-2,1,3-benzothiadiazol-1(3H)-yl]pentan-1-amine hydrochloride]				pIC50 [5]: 6.17
CCN(C)CCCCN1c2ccccc2N(c2ccc(Cl)cc2)S1(=O)=O [Example 23, 4-[3-(4-chlorophenyl)-2,2-dioxido-2,1,3-benzothiadiazol-1(3H)-yl]-ethyl-N-methylbutan-1-amine]				inhibition at 2 µM [4]: 28%

Further lines, with some results ahead:

half-life at 1 µM [1] [min]	pIC50 [2]	IC50 [3] [nM]	SMILES	also measured
19	7.28	46.1	CNCCCCN1c2ccccc2N(c2ccc(F)cc2)S1(=O)=O [drawing 167]	
1	6.18	2.56	CCNCCCN1c2ccccc2N(c2ccccc2F)S1(=O)=O [drawing 170]	
18	6.91	19.8	CNCCCN1c2ccccc2N(c2ccc(F)c(F)c2)S1(=O)=O [drawing 163]	
2	6.68	0.3	CNCCCCN1c2ccccc2N(c2ccccc2)S1(=O)=O [drawing 158]	
2	6.75	10.8	CNCCCN1c2ccccc2N(c2cccc(OC)c2)S1(=O)=O [drawing 169]	
10	6.44	11.3	CNCCCN1c2ccccc2N(c2ccc(F)cc2F)S1(=O)=O [drawing 165]	
< 1	6.56	7.06	CNCCCN1c2ccccc2N(c2ccccc2C)S1(=O)=O [drawing 168]	
1	5.03	2.3	CNCCCCN1c2ccccc2N(c2c(F)cccc2F)S1(=O)=O [drawing 162]	
2	6.32	2.7	CNCCCN1c2ccccc2N(c2cc(F)ccc2F)S1(=O)=O [drawing 164]	
2	6.22	2.6	CNCCCN1c2ccccc2N(c2ccccc2)S1(=O)=O [drawing 157]	

— US20080161366A1, “AMINOALKYL SUBSTITUTED ARYL SULFAMIDE DERIVATIVES AND METHODS OF THEIR USE” (Wyeth, priority 2006, published 2008)
